# What was measured:
# A498 = experiment: cells; conditions: Homo sapiens, A498, 48 h
# HL-60(TB) = experiment: cells; conditions: Homo sapiens, HL-60, 48 h
# K-562 = experiment: cells; conditions: Homo sapiens, K562, 48 h
# SN12C = experiment: cells; conditions: Homo sapiens, 48 h
# PC-3 = experiment: cells; conditions: Homo sapiens, PC-3, 48 h
# NCI-H460 = experiment: cells; conditions: Homo sapiens, NCI-H460, 48 h
# M14 = experiment: cells; conditions: Homo sapiens, M14, 48 h
# HCT-116 = experiment: cells; conditions: Homo sapiens, HCT-116, 48 h
# A549/ATCC = experiment: cells; conditions: Homo sapiens, A549, 48 h
# HS 578T = experiment: cells; conditions: Homo sapiens, 48 h
# MDA-MB-435 = experiment: cells; conditions: Homo sapiens, MDA-MB-435, 48 h
# NCI-H23 = experiment: cells; conditions: Homo sapiens, NCI-H23, 48 h
# SK-OV-3 = experiment: cells; conditions: Homo sapiens, SK-OV-3, 48 h
# IGROV1 = experiment: cells; conditions: Homo sapiens, IGROV-1, 48 h
# SK-MEL-28 = experiment: cells; conditions: Homo sapiens, SK-MEL-28, 48 h
# 60 cancer cell lines = experiment: NCI-60 one-dose screen (10 μM); type: cell-based; conditions: Homo sapiens; one dose of 10 μM, mean over 60 cancer cell lines; read-out: Mean Growth Percent (MGP)
# Description: Additionally, the mean of the growth percentages (MGP) of each compound against all the 60 cancer cell lines is also reported, which is used as one of the selection criteria to continue with tests at five concentration doses.
# SNB-75 = experiment: cells; conditions: Homo sapiens, SNB-75, 48 h
# HCC-2998 = experiment: cells; conditions: Homo sapiens, HCC 2998, 48 h
# SW-620 = experiment: cells; conditions: Homo sapiens, SW-620, 48 h
# LOX IMVI = experiment: cells; conditions: Homo sapiens, 48 h
# MCF7 = experiment: cells; conditions: Homo sapiens, MCF7, 48 h
# EKVX = experiment: cells; conditions: Homo sapiens, 48 h
# HOP-92 = experiment: cells; conditions: Homo sapiens, HOP-92, 48 h
# NCI-H226 = experiment: cells; conditions: Homo sapiens, NCI-H226, 48 h
# MDA-MB-231/ATCC = experiment: cells; conditions: Homo sapiens, MDA-MB-231, 48 h
# SF-539 = experiment: cells; conditions: Homo sapiens, SF-539, 48 h
# CCRF-CEM = experiment: cells; conditions: Homo sapiens, 48 h
# TK-10 = experiment: cells; conditions: Homo sapiens, TK-10, 48 h
# UACC-257 = experiment: cells; conditions: Homo sapiens, UACC-257, 48 h
# OVCAR-8 = experiment: cells; conditions: Homo sapiens, OVCAR-8, 48 h
# MALME-3M = experiment: cells; conditions: Homo sapiens, 48 h
# RXF 393 = experiment: cells; conditions: Homo sapiens, RXF 393, 48 h
# [1] = Hemolytic activity, spectrophotometric; type: cell-based, human; conditions: human, human red blood cells (huRBC), 5% hematocrit, 200 μg/mL, 37 °C
# ACHN = experiment: cells; conditions: Homo sapiens, 48 h
# RPMI-8226 = experiment: cells; conditions: Homo sapiens, RPMI-8226, 48 h
# BT-549 = experiment: cells; conditions: Homo sapiens, BT-549, 48 h
# MOLT-4 = experiment: cells; conditions: Homo sapiens, MOLT-4, 48 h
# OVCAR-5 = experiment: cells; conditions: Homo sapiens, OVCAR-5, 48 h
compound,measurement,setting,value
CN(C)c1nc(NCCNS(=O)(=O)c2ccc(C(=O)/C=C/c3ccccc3)cc2)nc(Nc2ccc(F)cc2)n1 [24a],GI50,A498,11.6 µM
same,CC50,A498; read-out: LC50,49.7 µM
same,GI50,HL-60(TB),3.88 µM
same,CC50,HL-60(TB); read-out: LC50,> 100 µM
same,GI50,"K-562; K-562, 48 h",3.34 µM
same,CC50,K-562; read-out: LC50,> 100 µM
same,GI50,SN12C,8.2 µM
same,CC50,SN12C; read-out: LC50,46.2 µM
same,GI50,PC-3,4.39 µM
same,CC50,PC-3; read-out: LC50,> 100 µM
same,GI50,NCI-H460,4.34 µM
same,CC50,NCI-H460; read-out: LC50,56.5 µM
same,GI50,M14,5.98 µM
same,CC50,M14; read-out: LC50,51.5 µM
same,GI50,HCT-116,1.72 µM
same,CC50,HCT-116; read-out: LC50,6.1 µM
same,GI50,A549/ATCC,8.33 µM
same,CC50,A549/ATCC; read-out: LC50,73.5 µM
same,GI50,HS 578T,7.39 µM
same,CC50,HS 578T; read-out: LC50,> 100 µM
same,GI50,MDA-MB-435,7.44 µM
same,CC50,MDA-MB-435; read-out: LC50,59.8 µM
same,GI50,NCI-H23,10.1 µM
same,CC50,NCI-H23; read-out: LC50,50 µM
same,GI50,SK-OV-3,13 µM
same,CC50,SK-OV-3; read-out: LC50,68.1 µM
same,GI50,IGROV1,11.2 µM
same,CC50,IGROV1; read-out: LC50,50.6 µM
same,GI50,SK-MEL-28,10.2 µM
same,CC50,SK-MEL-28; read-out: LC50,48.4 µM
same,activity at 10 µM,60 cancer cell lines,13.6%
same,GI50,SNB-75,3.23 µM
same,CC50,SNB-75; read-out: LC50,> 100 µM
same,GI50,HCC-2998,2.35 µM
same,CC50,HCC-2998; read-out: LC50,17.9 µM
same,GI50,SW-620,5.56 µM
same,CC50,SW-620; read-out: LC50,54.3 µM
same,GI50,LOX IMVI,2.47 µM
same,CC50,"LOX IMVI; read-out: LC50, LOX IMVI, 48 h",27.4 µM
same,GI50,MCF7,1.99 µM
same,CC50,MCF7; read-out: LC50,8.23 µM
same,GI50,EKVX,4.48 µM
same,CC50,EKVX; read-out: LC50,40.6 µM
same,GI50,HOP-92,8.1 µM
same,CC50,HOP-92; read-out: LC50,60.1 µM
same,GI50,NCI-H226,5.22 µM
same,CC50,NCI-H226; read-out: LC50,57.3 µM
same,GI50,MDA-MB-231/ATCC,4.84 µM
same,CC50,MDA-MB-231/ATCC; read-out: LC50,45.8 µM
same,GI50,SF-539,12 µM
same,CC50,"SF-539; read-out: LC50, SF-539, 48 h",50.2 µM
same,GI50,CCRF-CEM,6.59 µM
same,CC50,CCRF-CEM; read-out: LC50,> 100 µM
same,GI50,TK-10,14.6 µM
same,CC50,TK-10; read-out: LC50,65.5 µM
same,GI50,UACC-257,12.6 µM
same,CC50,UACC-257; read-out: LC50,61 µM
same,GI50,OVCAR-8,12.2 µM
same,CC50,OVCAR-8; read-out: LC50,57.1 µM
same,GI50,MALME-3M,12.6 µM
same,CC50,MALME-3M; read-out: LC50,54.5 µM
same,GI50,RXF 393,2.94 µM
same,CC50,RXF 393; read-out: LC50,39.9 µM
same,"hemolysis at 24 h, 200 µg/mL",[1],10.6%
same,GI50,ACHN,4.92 µM
same,CC50,ACHN; read-out: LC50,43.5 µM
same,GI50,RPMI-8226,3.04 µM
same,CC50,RPMI-8226; read-out: LC50,> 100 µM
same,GI50,BT-549,13.9 µM
same,CC50,BT-549; read-out: LC50,54.3 µM
same,GI50,MOLT-4,3.22 µM
same,CC50,MOLT-4; read-out: LC50,> 100 µM
same,GI50,OVCAR-5,13.3 µM
same,CC50,OVCAR-5; read-out: LC50,53.2 µM
